Columns and labels:
Format in all cases: in vivo
[1] = tested on: Diabrotica Balteata (Corn root worm); test: Diabrotica balteata larvae on maize sprouts (Example B2); details: 96 h, application rate of 200 ppm, L2 larvae, 4 days after infestation, read-out: effect in at least one of the two categories (mortality or growth inhibition)
Experimental: Diabrotica Balteata (Corn root worm)
Maize sprouts placed onto an agar layer in 24-well microtiter plates were treated with aqueous test solutions prepared from 10,000 ppm DMSO stock solutions by spraying. After drying, the plates were infested with L2 larvae (6 to 10 per well). The samples were assessed for mortality and growth inhibition in comparison to untreated samples 4 days after infestation.

[2] = tested on: Euschistus heros (Neotropical Brown Stink Bug); test: Euschistus heros nymphs on soybean leaves (Example B3); details: 120 h, application rate of 200 ppm, N2 nymphs, 5 days after infestation, read-out: effect in at least one of the two categories (mortality or growth inhibition)
Experimental: Euschistus heros (Neotropical Brown Stink Bug)
Soybean leaves on agar in 24-well microtiter plates were sprayed with aqueous test solutions prepared from 10,000 ppm DMSO stock solutions. After drying the leaves were infested with N2 nymphs. The samples were assessed for mortality and growth inhibition in comparison to untreated samples 5 days after infestation.

[3] = tested on: Plutella xylostella (Diamond Back Moth); test: Plutella xylostella larvae on artificial diet (Example B7); details: 120 h, application rate of 200 ppm, L2 larvae, 5 days after infestation, read-out: effect in at least one of the two categories (mortality or growth inhibition)
Experimental: Plutella xylostella (Diamond Back Moth)
24-well microtiter plates with artificial diet were treated with aqueous test solutions prepared from 10,000 ppm DMSO stock solutions by pipetting. After drying, the plates were infested with L2 larvae (10 to 15 per well). The samples were assessed for mortality and growth inhibition in comparison to untreated samples 5 days after infestation.

[4] = tested on: Spodoptera littoralis (Egyptian Cotton Leaf Worm); test: Spodoptera littoralis on sprayed cotton leaf discs (Example B8); details: foliar, 72 h, application rate of 200 ppm, L1 larvae, 3 days after infestation, read-out: control (mortality, anti-feeding effect, growth inhibition)
Experimental: (§1) Spodoptera littoralis (Egyptian Cotton Leaf Worm)
Cotton leaf discs were placed onto agar in 24-well microtiter plates and sprayed with aqueous test solutions prepared from 10,000 ppm DMSO stock solutions. After drying the leaf discs were infested with five L1 larvae. The samples were assessed for mortality, anti-feeding effect, and growth inhibition in comparison to untreated samples 3 days after infestation. Control of Spodoptera littoralis by a test sample is given when at least one of the categories mortality, anti-feedant effect, and growth inhibition is higher than the untreated sample.

[5] = tested on: Frankliniella occidentalis (Western Flower Thrips); test: Frankliniella occidentalis feeding/contact activity (Example B4); details: foliar, 168 h, application rate of 200 ppm, sunflower leaf discs, population of mixed ages, 7 days after infestation
Experimental: Frankliniella occidentalis (Western Flower Thrips): Feeding/Contact Activity
Sunflower leaf discs were placed on agar in 24-well microtiter plates and sprayed with aqueous test solutions prepared from 10,000 DMSO stock solutions. After drying the leaf discs were infested with a Frankliniella population of mixed ages. The samples were assessed for mortality 7 days after infestation.

[6] = tested on: Myzus persicae (Green Peach Aphid); test: Myzus persicae feeding/contact activity (Example B5); details: foliar, 144 h, application rate of 200 ppm, sunflower leaf discs, aphid population of mixed ages, 6 days after infestation
Experimental: Myzus persicae (Green Peach Aphid): Feeding/Contact Activity
Sunflower leaf discs were placed onto agar in a 24-well microtiter plate and sprayed with aqueous test solutions prepared from 10,000 ppm DMSO stock solutions. After drying, the leaf discs were infested with an aphid population of mixed ages. The samples were assessed for mortality 6 days after infestation.

[7] = tested on: Spodoptera littoralis (Egyptian Cotton Leaf Worm); test: Spodoptera littoralis, uptake by lettuce roots from agar (Example B9); details: 144 h, test rate of 12.5 ppm, lettuce grown on treated agar, eggs, 6 days after infestation, read-out: effect in at least one of the three categories (mortality, anti-feeding, or growth inhibition)
Text: as §1
Test compounds were applied by pipette from 10,000 ppm DMSO stock solutions into 24-well plates and mixed with agar. Lettuce seeds were placed onto the agar and the multi well plate was closed by another plate which contained also agar. After 7 days the compound was absorbed by the roots and the lettuce grew into the lid plate. The lettuce leaves were then cut off into the lid plate. Spodoptera eggs were pipetted through a plastic stencil onto a humid gel blotting paper and the lid plate was closed with it. The samples were assessed for mortality, anti-feedant effect and growth inhibition in comparison to untreated samples 6 days after infestation.

[8] = tested on: Tetranychus urticae (Two-spotted Spider Mite); test: Tetranychus urticae feeding/contact activity (Example B10); details: foliar, 192 h
Experimental: Tetranychus urticae (Two-spotted Spider Mite): Feeding/Contact Activity
Bean leaf discs on agar in 24-well microtiter plates were sprayed with aqueous test solutions prepared from 10,000 ppm DMSO stock solutions. After drying the leaf discs were infested with a mite population of mixed ages. The samples were assessed for mortality on mixed population (mobile stages) 8 days after infestation.

[9] = tested on: Bemisia Tabaci (Cotton White Fly); test: Bemisia tabaci feeding/contact activity (Example B1); details: foliar, 144 h, application rate of 200 ppm, cotton leaf discs, adult white flies, 6 days after incubation
Experimental: Bemisia Tabaci (Cotton White Fly): Feeding/Contact Activity
Cotton leaf discs were placed on agar in 24-well microtiter plates and sprayed with aqueous test solutions prepared from 10,000 ppm DMSO stock solutions. After drying the leaf discs were infested with adult white flies. The samples were checked for mortality 6 days after incubation.

[10] = tested on: Myzus persicae (Green Peach Aphid); test: Myzus persicae systemic activity (Example B6); details: 144 h, test rate of 24 ppm, roots of pea seedlings in test solution, 6 days
Experimental: Myzus persicae (Green Peach Aphid): Systemic Activity
Roots of pea seedlings infested with an aphid population of mixed ages were placed directly into aqueous test solutions prepared from 10,000 DMSO stock solutions. The samples were assessed for mortality 6 days after placing seedlings into test solutions.

CCSc1cc2ccccc2cc1-c1nc2cc(C(F)(F)F)n(CC)c(=O)c2n1C [Compound A1, 5-ethyl-2-(3-ethylsulfanyl-2-naphthyl)-3-methyl-6-(trifluoromethyl)-3aH-imidazo[4,5-c]pyrid in-4-one]
≥ 80%: percent effect (mortality or growth inhibition) at 200 ppm [1] | percent effect (mortality or growth inhibition) at 200 ppm [2] | percent effect (mortality or growth inhibition) at 200 ppm [3] | mortality at 200 ppm [4]

CCn1c(C(F)(F)F)cc2nc(-c3cc4ccccc4cc3S(=O)(=O)CC)n(C)c2c1=O [Compound A2, 5-ethyl-2-(3-ethylsulfonyl-2-naphthyl)-3-methyl-6-(trifluoromethyl)-6H-im idazo[4,5-c]pyridin-4-one]
≥ 80%: percent effect (mortality or growth inhibition) at 200 ppm [1] | percent effect (mortality or growth inhibition) at 200 ppm [2] | mortality at 200 ppm [5] | mortality at 200 ppm [6] | percent effect (mortality or growth inhibition) at 200 ppm [3] | mortality at 200 ppm [4] | percent effect (mortality, anti-feeding or growth inhibition) at 12.5 ppm [7] | mortality at 200 ppm [8]

CCSc1cc2ccccc2nc1-c1nc2cc(C(F)(F)F)n(CC)c(=O)c2n1C [Compound A3, 5-ethyl-2-(3-ethylsulfanyl-2-quinolyl)-3-methyl-6-(trifluoromethyl)-3aH-imidazo[4,5-c]pyridin-4-one]
≥ 80%: percent effect (mortality or growth inhibition) at 200 ppm [1] | mortality at 200 ppm [6] | percent effect (mortality or growth inhibition) at 200 ppm [3] | mortality at 200 ppm [4]

CCSc1cc2c(cc1-c1nc3cc(C(F)(F)F)n(CC)c(=O)c3n1C)nc(C(F)(F)F)n2C [Compound A5, 5-ethyl-2-[6-ethylsulfanyl-1-methyl-2-(trifluoromethyl)benzimidazol-5-yl]-3-methyl-6-(trifluoromethyl)imidazo[4,5-c]pyridin-4-one]
≥ 80%: percent effect (mortality or growth inhibition) at 200 ppm [2] | mortality at 200 ppm [4]

CCn1c(C(F)(F)F)cc2nc(-c3cc4nc(C(F)(F)F)n(C)c4cc3S(=O)(=O)CC)n(C)c2c1=O [Compound A6, 5-ethyl-2-[6-ethylsulfonyl-1-methyl-2-(trifluoromethyl)benzimidazol-5-yl]-3-methyl-6-(trifluoromethyl)imidazo[4,5-c]pyridin-4-one]
≥ 80%: mortality at 200 ppm [9] | percent effect (mortality or growth inhibition) at 200 ppm [2] | mortality at 200 ppm [5] | mortality at 200 ppm [6] | mortality at 24 ppm [10] | percent effect (mortality or growth inhibition) at 200 ppm [3] | mortality at 200 ppm [4] | percent effect (mortality, anti-feeding or growth inhibition) at 12.5 ppm [7]

CCn1c(C(F)(F)F)cc2nc(-c3cc4ccncc4cc3S(=O)(=O)CC)n(C)c2c1=O [Compound A8, 5-ethyl-2-(7-ethylsulfonyl-6-isoquinolyl)-3-methyl-6-(trifluoromethyl)imidazo[4,5-c]pyridin-4-one]
≥ 80%: percent effect (mortality or growth inhibition) at 200 ppm [1] | percent effect (mortality or growth inhibition) at 200 ppm [2] | percent effect (mortality or growth inhibition) at 200 ppm [3] | mortality at 200 ppm [4]

CCn1c(C(F)(F)F)cc2nc(-c3cc4cc[n+]([O-])cc4cc3S(=O)(=O)CC)n(C)c2c1=O [Compound A9, 5-ethyl-2-(7-ethylsulfonyl-2-oxido-isoquinolin-2-ium-6-yl)-3-methyl-6-(trifluoromethyl)imidazo[4,5-c]pyridin-4-one]
≥ 80%: mortality at 24 ppm [10] | percent effect (mortality or growth inhibition) at 200 ppm [3] | mortality at 200 ppm [4]
